≈ marks a conversion by molar mass, not a printed value. Calls of active or inactive are those of the source. The calls are words filed in the database; no cut-off is given here.
What was measured:
Candida albicans [1] = experiment: Antifungal activity against Candida albicans SC5314 assessed as inhibition of fungal growth by CLSI protocol based microdilution method; type: functional
Candida parapsilosis = experiment: Antifungal activity against Candida parapsilosis ATCC 22019 assessed as inhibition of fungal growth by CLSI protocol based microdilution method; type: functional; settings: Lodderomyces parapsilosis
Nakaseomyces glabratus = experiment: Antifungal activity against Candida glabrata assessed as inhibition of fungal growth by CLSI protocol based microdilution method; type: functional
Cryptococcus neoformans = experiment: Antifungal activity against Cryptococcus neoformans CGMCC2.3161 assessed as inhibition of fungal growth by CLSI protocol based microdilution method; type: functional
[2] = Half life in mouse plasma measured at 180 mins; type: ADME, cell-free
[3] = Stability in mouse plasma assessed as parent compound remaining measured at 180 mins; type: ADME, cell-free; settings: read-out: Stability
Candida albicans [4] = experiment: Antifungal activity against fluconazole-resistant Candida albicans CaR assessed as inhibition of fungal growth by CLSI based microdilution method; type: functional
Candida albicans [5] = experiment: Antifungal activity against fluconazole-resistant Candida albicans 17 assessed as inhibition of fungal growth by CLSI based microdilution method; type: functional
Candida albicans [6] = experiment: Antifungal activity against fluconazole-resistant Candida albicans 904 assessed as inhibition of fungal growth by CLSI based microdilution method; type: functional
Candida albicans [7] = experiment: Antifungal activity against fluconazole-resistant Candida albicans 901 assessed as inhibition of fungal growth by CLSI based microdilution method; type: functional
Candida albicans [8] = experiment: Fungicidal activity against Candida albicans assessed as inhibition of fungal growth measured after 48 hrs by CLSI protocol based microdilution method; type: functional
Candida albicans [9] = experiment: Ratio of MFC for fungicidal activity against Candida albicans to MIC for antifungal activity against Candida albicans; type: functional
[10] = biological target: Voltage-gated inwardly rectifying potassium channel KCNH2 (Homo sapiens, UniProt Q12809); experiment: Inhibition of hERG1; type: toxicity
Voltage-gated inwardly rectifying potassium channel KCNH2, sequence (Q12809 whole entry): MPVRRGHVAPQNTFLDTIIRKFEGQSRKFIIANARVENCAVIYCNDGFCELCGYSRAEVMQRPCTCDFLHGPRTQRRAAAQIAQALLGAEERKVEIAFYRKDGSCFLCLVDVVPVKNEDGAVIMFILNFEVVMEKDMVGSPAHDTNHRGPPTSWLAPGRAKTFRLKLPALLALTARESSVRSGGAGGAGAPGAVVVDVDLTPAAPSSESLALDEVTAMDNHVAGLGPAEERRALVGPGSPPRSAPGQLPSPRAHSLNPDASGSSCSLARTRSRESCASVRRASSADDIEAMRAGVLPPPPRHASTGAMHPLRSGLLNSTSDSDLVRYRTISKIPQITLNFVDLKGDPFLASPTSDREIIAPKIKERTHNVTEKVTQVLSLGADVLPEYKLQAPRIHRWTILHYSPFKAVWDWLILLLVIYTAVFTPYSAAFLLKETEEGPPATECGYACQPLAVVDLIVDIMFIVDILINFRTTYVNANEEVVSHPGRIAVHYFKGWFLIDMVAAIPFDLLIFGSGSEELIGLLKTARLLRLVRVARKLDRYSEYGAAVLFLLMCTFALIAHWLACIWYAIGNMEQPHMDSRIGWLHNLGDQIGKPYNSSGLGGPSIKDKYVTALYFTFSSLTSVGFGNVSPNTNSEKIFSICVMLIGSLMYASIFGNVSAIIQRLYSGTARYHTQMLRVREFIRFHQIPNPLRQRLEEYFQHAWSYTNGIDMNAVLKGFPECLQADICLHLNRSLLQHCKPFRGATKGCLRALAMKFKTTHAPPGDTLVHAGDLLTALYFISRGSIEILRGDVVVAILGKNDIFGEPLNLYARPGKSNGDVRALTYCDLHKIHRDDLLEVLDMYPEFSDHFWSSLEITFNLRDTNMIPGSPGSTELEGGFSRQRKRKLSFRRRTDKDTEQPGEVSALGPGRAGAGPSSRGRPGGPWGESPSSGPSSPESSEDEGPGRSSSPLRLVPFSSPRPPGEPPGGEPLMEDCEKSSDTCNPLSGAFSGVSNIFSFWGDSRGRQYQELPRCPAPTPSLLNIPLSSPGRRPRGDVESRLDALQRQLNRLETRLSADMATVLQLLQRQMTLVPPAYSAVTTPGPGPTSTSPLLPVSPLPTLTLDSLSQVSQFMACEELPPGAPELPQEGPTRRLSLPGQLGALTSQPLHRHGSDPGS

[11] = biological target: T1, Voltage-gated inwardly rectifying potassium channel KCNH6 (Homo sapiens, UniProt Q9H252); experiment: Inhibition of hERG2; type: toxicity
T1 sequence (Q9H252 whole entry): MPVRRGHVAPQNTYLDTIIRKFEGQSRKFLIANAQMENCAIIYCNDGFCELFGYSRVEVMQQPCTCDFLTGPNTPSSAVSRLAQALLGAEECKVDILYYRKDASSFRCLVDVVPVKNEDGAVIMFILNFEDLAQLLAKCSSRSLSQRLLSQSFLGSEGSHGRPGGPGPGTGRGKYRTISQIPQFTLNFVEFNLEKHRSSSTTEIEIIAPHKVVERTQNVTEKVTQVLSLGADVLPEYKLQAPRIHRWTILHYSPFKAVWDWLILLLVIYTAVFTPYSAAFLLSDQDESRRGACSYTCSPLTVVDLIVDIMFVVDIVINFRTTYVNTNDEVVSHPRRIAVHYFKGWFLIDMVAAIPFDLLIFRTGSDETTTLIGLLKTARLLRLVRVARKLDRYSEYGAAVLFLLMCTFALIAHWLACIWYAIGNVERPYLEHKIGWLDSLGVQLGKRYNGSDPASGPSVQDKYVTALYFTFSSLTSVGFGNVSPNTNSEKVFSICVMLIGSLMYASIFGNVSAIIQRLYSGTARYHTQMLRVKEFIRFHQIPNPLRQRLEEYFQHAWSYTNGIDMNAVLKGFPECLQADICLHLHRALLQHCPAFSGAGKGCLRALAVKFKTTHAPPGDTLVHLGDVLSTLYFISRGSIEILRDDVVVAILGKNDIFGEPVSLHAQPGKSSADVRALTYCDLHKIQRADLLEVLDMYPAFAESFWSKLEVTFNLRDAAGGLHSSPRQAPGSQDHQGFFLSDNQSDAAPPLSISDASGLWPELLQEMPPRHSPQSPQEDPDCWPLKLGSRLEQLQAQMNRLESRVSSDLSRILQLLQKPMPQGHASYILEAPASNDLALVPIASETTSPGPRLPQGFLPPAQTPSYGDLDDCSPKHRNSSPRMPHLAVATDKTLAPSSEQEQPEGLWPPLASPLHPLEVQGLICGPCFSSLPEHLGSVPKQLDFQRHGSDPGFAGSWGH

[12] = biological target: T2, Lanosterol 14-alpha demethylase (Candida albicans (strain SC5314 / ATCC MYA-2876) (Yeast), UniProt P10613); experiment: Inhibition of CYP51 in Candida albicans SC5314 assessed as increase in lanosterol level at 0.031 ug/ml incubated for 24 hrs by GC-MS analysis relative to control; settings: at 0.031 µg/mL
T2 sequence (P10613 whole entry): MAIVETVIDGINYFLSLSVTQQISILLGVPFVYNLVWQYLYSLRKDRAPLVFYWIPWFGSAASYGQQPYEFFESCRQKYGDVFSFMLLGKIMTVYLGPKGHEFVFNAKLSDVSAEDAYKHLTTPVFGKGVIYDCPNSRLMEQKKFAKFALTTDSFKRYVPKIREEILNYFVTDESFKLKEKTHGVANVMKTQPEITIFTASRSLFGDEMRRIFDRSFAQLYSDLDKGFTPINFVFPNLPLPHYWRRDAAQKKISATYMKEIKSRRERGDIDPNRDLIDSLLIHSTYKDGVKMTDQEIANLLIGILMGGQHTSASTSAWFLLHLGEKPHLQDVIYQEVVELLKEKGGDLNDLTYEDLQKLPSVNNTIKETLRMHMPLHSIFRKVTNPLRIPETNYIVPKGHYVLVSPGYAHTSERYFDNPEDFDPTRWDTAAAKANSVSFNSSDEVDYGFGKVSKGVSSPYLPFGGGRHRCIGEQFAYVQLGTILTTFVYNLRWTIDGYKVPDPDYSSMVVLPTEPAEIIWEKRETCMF

[13] = biological target: T2, Lanosterol 14-alpha demethylase; experiment: Inhibition of CYP51 in Candida albicans SC5314 assessed as increase in eburicol level at 0.031 ug/ml incubated for 24 hrs by GC-MS analysis relative to control; settings: at 0.031 µg/mL
Candida albicans [14] = experiment: Antifungal activity against Candida albicans CPCC400616 assessed as inhibition of hyphae formation at 2 ug/ml incubated for 4 hrs by inverted microscopic analysis; type: functional, organism-based; settings: dose 2.0 µg/ml
Candida albicans [15] = experiment: Antifungal activity against fluconazole-resistant Candida albicans 904 assessed as inhibition of hyphae formation at 16 ug/ml incubated for 4 hrs by inverted microscopic analysis; type: functional, organism-based; settings: dose 16.0 µg/ml
Candida albicans [16] = experiment: Antifungal activity against Candida albicans CPCC400616 assessed as inhibition of fungal biofilm formation incubated for 24 hrs by XTT assay; type: functional, organism-based
Candida albicans [17] = experiment: Antifungal activity against Candida albicans CPCC400616 assessed as downregulation of TEC1 gene expression at 2 ug/ml incubated for 12 hrs by RT-PCR analysis; type: functional, organism-based; settings: dose 2.0 µg/ml
Candida albicans [18] = experiment: Antifungal activity against Candida albicans CPCC400616 assessed as downregulation of EFG1 gene expression at 2 ug/ml incubated for 12 hrs by RT-PCR analysis; type: functional, organism-based; settings: dose 2.0 µg/ml
Candida albicans [19] = experiment: Antifungal activity against Candida albicans CPCC400616 assessed as downregulation of CPH1 gene expression at 2 ug/ml incubated for 12 hrs by RT-PCR analysis; type: functional, organism-based; settings: dose 2.0 µg/ml
Candida albicans [20] = experiment: Antifungal activity against Candida albicans CPCC400616 assessed as downregulation of ALS3 gene expression at 2 ug/ml incubated for 12 hrs by RT-PCR analysis; type: functional, organism-based; settings: dose 2.0 µg/ml
Candida albicans [21] = experiment: Antifungal activity against fluconazole-resistant Candida albicans 904 assessed as downregulation of TEC1 gene expression at 16 ug/ml incubated for 12 hrs by RT-PCR analysis; type: functional, organism-based; settings: dose 16.0 µg/ml
Candida albicans [22] = experiment: Antifungal activity against fluconazole-resistant Candida albicans 904 assessed as downregulation of CPH1 gene expression at 16 ug/ml incubated for 12 hrs by RT-PCR analysis; type: functional, organism-based; settings: dose 16.0 µg/ml
Candida albicans [23] = experiment: Antifungal activity against fluconazole-resistant Candida albicans 904 assessed as downregulation of ALS3 gene expression at 16 ug/ml incubated for 12 hrs by RT-PCR analysis; type: functional, organism-based; settings: dose 16.0 µg/ml
Candida albicans [24] = experiment: Antifungal activity against fluconazole-resistant Candida albicans 904 assessed as downregulation of ERG11 gene expression at 16 ug/ml incubated for 16 hrs by RT-PCR analysis; type: functional, organism-based; settings: dose 16.0 µg/ml
Candida albicans [25] = experiment: Antifungal activity against fluconazole-resistant Candida albicans 904 assessed as downregulation of CDR1 gene expression at 16 ug/ml incubated for 16 hrs by RT-PCR analysis; type: functional, organism-based; settings: dose 16.0 µg/ml
Candida albicans [26] = experiment: Antifungal activity against fluconazole-resistant Candida albicans 904 assessed as downregulation of CDR2 gene expression at 16 ug/ml incubated for 16 hrs by RT-PCR analysis; type: functional, organism-based; settings: dose 16.0 µg/ml

Row | SMILES | MIC (Candida albicans [1]) | MIC (Candida parapsilosis) | MIC (Nakaseomyces glabratus) | MIC (Cryptococcus neoformans) | half-life [2] | remaining at 3 h [3] | MIC (Candida albicans [4]) | MIC (Candida albicans [5]) | MIC (Candida albicans [6]) | MIC (Candida albicans [7]) | MFC (Candida albicans [8]) | Ratio (Candida albicans [9]) | inhibition (INH) [10] | inhibition (INH) [11] | inhibition (INH) [12] | inhibition (INH) [13] | Activity (Candida albicans [14]) | Activity (Candida albicans [15]) | Activity (Candida albicans [16]) | Activity (Candida albicans [17]) | other results
1 | O=C(/C=C/c1ccc(COC(Cn2ccnc2)c2ccc(Cl)cc2Cl)cc1)Nc1ccc(Cl)cc1Cl (stereo not drawn) | 0.03 µg/mL (≈ 0.0534 µM) | 0.06 µg/mL (≈ 0.107 µM) | 1 µg/mL (≈ 1.78 µM) | 0.5 µg/mL (≈ 0.891 µM) | > 6 h | 97.8% | 1 µg/mL (≈ 1.78 µM) | 0.25 µg/mL (≈ 0.445 µM) | 1 µg/mL (≈ 1.78 µM) | 1 µg/mL (≈ 1.78 µM) | 32 µg/mL (≈ 57 µM) | 32 | Active | Active | Active | Active | Active | Active | Dose-Dependent Effect | Active | Activity (Candida albicans [18]): Active; Activity (Candida albicans [19]): Active; Activity (Candida albicans [20]): Active; Activity (Candida albicans [21]): Active; Activity (Candida albicans [22]): Active; Activity (Candida albicans [23]): Active; Activity (Candida albicans [24]): Active; Activity (Candida albicans [25]): Active; Activity (Candida albicans [26]): Active
2 | CCCCNC(=O)/C=C/c1ccc(COC(Cn2ccnc2)c2ccc(Cl)cc2Cl)cc1 (stereo not drawn) | 0.015 µg/mL (≈ 0.0318 µM) | 0.06 µg/mL (≈ 0.127 µM) | 4 µg/mL (≈ 8.47 µM) | 0.5 µg/mL (≈ 1.06 µM) | > 6 h | 102% | 1 µg/mL (≈ 2.12 µM) | 4 µg/mL (≈ 8.47 µM) | 1 µg/mL (≈ 2.12 µM) | 1 µg/mL (≈ 2.12 µM) | 32 µg/mL (≈ 67.7 µM) | 16 | Not Active | Active | Active | Active | Active | Active | Dose-Dependent Effect | Active | Activity (Candida albicans [18]): Active; Activity (Candida albicans [19]): Active; Activity (Candida albicans [20]): Active; Activity (Candida albicans [21]): Active; Activity (Candida albicans [22]): Active; Activity (Candida albicans [23]): Active; Activity (Candida albicans [24]): Active; Activity (Candida albicans [25]): Active; Activity (Candida albicans [26]): Active

From ChEMBL document CHEMBL5550210, “Discovery of Novel α,β-Unsaturated Amide Derivatives as Candidate Antifungals to Overcome Fungal Resistance” (J Med Chem, 2024)
